Assay results: US8293786B2 (Alltranz Inc., priority 2007, dated 2012)

Experiments:
[1] = system: human abdominal skin; assay: In vitro human skin permeation and skin disposition, flow-through diffusion cells (Examples 2, 2A, 2B); format: in vitro ADME; settings: for 42 h cumulative amt / Flux / Lag time / 42 h skin conc / Flux enhancement: Table 16, 60/40 Hanks'/PEG 400 receiver fluid; for 42 h cumulative amt / Flux / Lag time / 42 h skin conc / Flux enhancement / 30 h skin conc: 90:8:2 PG:H2O:IPM donor solution; for Flux enhancement: total cannabidiol versus cannabidiol; for detected in the skin as / flux compared to cannabidiol / lag time compared to cannabidiol / permeated through the skin as / total skin concentrations compared to cannabidiol: in donor solution; for 30 h skin conc: Table 17, 40% aqueous PEG 400 receiver fluid
Experimental: Flow through diffusion cells were used for the permeation studies. HEPES-buffered Hanks' balanced salts containing 40% PEG 400 with gentamicin or 40% aqueous PEG 400 with gentamicin were used for the receiver compartment. Donor solution was comprised of 90:8:2 PG:H2O:IPM solution or gel formulation. […] Drug accumulation in the skin after a 24, 30 or 42 h diffusion experiment was determined as μmol/g wet tissue weight.
The skin samples used in the following experiments were obtained from abdominal reduction surgery and dermatomed to a thickness of approximately 200 μm. The skin samples used herein were frozen at −20° C. for less than six months.
One (1) L of receiver fluid was prepared by measuring 1 L of nanopure water into a graduated cylinder. 90% of the water was added to an Erlenmeyer flask. Hanks' salts (1 bottle) were added to the water along with 5.96 g of HEPES and 0.35 g of sodium bicarbonate. The pH of the solution was adjusted with 1 N sodium hydroxide solution to pH 7.4. The remaining water was added and the receiver fluid was filtered through a 0.2μ filter (Millipore, Billerica, Mass.). Fifty (50) mg of gentamicin was added to the filtered receiver fluid and 400 mL of the receiver fluid was removed and replaced with 400 mL of PEG 400.
The receiver fluid was prepared by measuring 600 mL of nanopure H2O into a graduated cylinder. The H2O was filtered through a 0.2μ filter (Millipore, Billerica, Mass.). Fifty (50) mg of gentamicin was added to the filtered H2O and 400 mL of PEG 400 was added.
The prodrugs were made up in a solution of 45:4:1 PG:H2O:IPM. For this solution, the appropriate amount of drug was weighed into a glass silanized culture tube and IPM was added, the 50 μL of PG to coat the drug, then an additional 247 μL PG was added and the donor solution was vortexed again. Finally 26 μL of water was added. The gel formulation resulted from the mixing of absolute ethanol, nanopure water, IPM, Carbopol® 980, 0.1 N sodium hydroxide solution and the respective drug.
The gel formulation was comprised of absolute ethanol, nanopure water, IPM, Carbopol® 980, 0.1 sodium hydroxide solution and respective drug. The anhydrous gel was comprised of absolute ethanol, PEG monoethyl ether 550, Klucel® hydroxypropylcellulose, and respective drug.
Dermatomed skin harvested from abdominoplasty, stored at −20° C., was used for the experiments. A PermeGear flow-through (In-Line, Hellertown, Pa.) diffusion cell system was used for the skin permeation studies.
Diffusion cells were kept at 32° C. with a circulating water bath. Human epidermal skin was arranged in the diffusion cell with stratum corneum (upper layer of skin) facing the donor compartment. The permeation area of the skin was 0.95 cm^2. The data was collected from a human skin donor with three diffusion cells per treatment.
The receiver solution was HEPES-buffered Hanks' balanced salts with gentamicin containing 40% PEG 400 at a pH of 7.4 or 40% aqueous PEG 400 and flow rate was adjusted to 0.8 mL/h. Each cell was charged with 0.10 mL of the respective drug formulation (donor solution) or 50 μL of gel formulation which was rubbed into the skin for 15 sec with a Teflon coated rod. The formulation was applied to ensure complete coverage. […]. Diffusion cells were covered with a stopper or cap for the duration of the study.
Samples were collected into scintillation vials in 3 h increments for either 24, 30, or 42 h. All the samples were stored at 4° C. until extracted. An aliquot (0.5 mL) of the diffusion sample was placed into a silanized HPLC vial and 0.5 mL of acetonitrile was added to the sample, capped and vortexed.
At the end of the experiment, the skin tissue was removed from the diffusion cell, rinsed with nanopure water, and blotted dry with a paper towel. The skin was tape stripped twice using book tape (Scotch™, 3M, St. Paul, Minn.) to remove drug formulation adhering to the tissue surface.

[2] = Plasma stability of cannabidiol prodrugs (bioconversion to parent drug); format: in vitro ADME; settings: Table 20; for % Prodrug at time (h): mono-prodrug in plasma; for % mono-prodrug at time (h) / % Di-prodrug at time (h): di-prodrug in plasma; for % mono-prodrug at time (h): mono-prodrug formed
Experimental: An approximated 1 mg/mL stock solution of each prodrug was prepared in 100 μL of ethanol and 900 μL of acetonitrile. Ten (10) μL of stock was spiked into 1 mL of plasma and vortexed. The samples were kept sealed in an amber vial and samples were obtained to analyze for bioconversion to parent drug.

[3] = as applied compound (CBD or intact prodrug)
[4] = prodrug applied, as total cannabidiol equivalents
[5] = mono-prodrug (ALL00131) from applied di-prodrug

Row | SMILES | 42 h cumulative amt ([1]; CBD from applied prodrug) [nmol] | Flux ([1]; CBD from applied prodrug) [nmol/cm^2/h] | Lag time ([1]; CBD from applied prodrug) [h] | 42 h cumulative amt [1, 3] [nmol] | 42 h skin conc [1, 3] [µmol/g] | Flux [1, 3] [nmol/cm^2/h] | Lag time [1, 3] [h] | 42 h cumulative amt [1, 4] [nmol] | 42 h skin conc [1, 4] [µmol/g] | Flux [1, 4] [nmol/cm^2/h] | Lag time [1, 4] [h] | Flux enhancement [1] | detected in the skin as [1] | flux compared to cannabidiol [1] | lag time compared to cannabidiol [1] | permeated through the skin as [1] | total skin concentrations compared to cannabidiol [1] | % Prodrug at time (h) ([2]; 0 h) [%] | % Prodrug at time (h) ([2]; 1 h) [%] | % Prodrug at time (h) ([2]; 24 h) [%] | other results
1 | C=C(C)[C@@H]1CCC(C)=C[C@H]1c1c(O)cc(CCCCC)cc1OC(=O)COCCOCCOCCOC [ALL00131, CBD 3,6,9,12-tetraoxatridecanoate] | 15.4 ± 2.0 | 0.6 ± 0.1 | 9.6 ± 3.0 | 54.9 ± 22.1 | 12.5 ± 5.5 | 2.3 ± 0.8 | 13.7 ± 1.9 | 70.3 ± 20.4 | 12.5 ± 5.5 | 2.8 ± 0.7 | 12.9 ± 1.6 | 0.43 | only as prodrug | did not increase the flux | similar | intact prodrug and cannabidiol | not higher | 100 | 64 | 14 | % Prodrug at time (h) ([2]; 2 h): 42%; % Prodrug at time (h) ([2]; 4 h): 24%; % Prodrug at time (h) ([2]; 6 h): 14%
2 | C=C(C)[C@@H]1CCC(C)=C[C@H]1c1c(OC(=O)COCCOCCOCCOC)cc(CCCCC)cc1OC(=O)COCCOCCOCCOC [ALL00132, CBD di(3,6,9,12-tetraoxatridecanoate)] | 10.0 ± 0.4 | 0.4 ± 0.1 | 11.8 ± 4.2 | 26.4 ± 17.0 | 2.9 ± 1.3 | 1.4 ± 0.4 | 19.2 ± 4.9 | 59.5 ± 23.8 | 3.5 ± 1.7 | 2.6 ± 0.5 | 14.9 ± 3.8 | 0.40 | prodrug and small amounts as mono-substituted prodrug, ALL00131 | did not increase the flux | wasn't decreased | intact prodrug, mono-substituted prodrug (ALL00131), and cannabidiol | not higher |  |  |  | 42 h cumulative amt [1, 5]: 23.0 ± 7.1 nmol; 42 h skin conc [1, 5]: 0.6 ± 0.1 µmol/g; Flux [1, 5]: 0.8 ± 0.2 nmol/cm^2/h; Lag time [1, 5]: 9.1 ± 3.3 h; % mono-prodrug at time (h) ([2]; 1 h): 52%; % mono-prodrug at time (h) ([2]; 2 h): 44%; % mono-prodrug at time (h) ([2]; 4 h): 24%; % mono-prodrug at time (h) ([2]; 6 h): 15%; % mono-prodrug at time (h) ([2]; 24 h): 2%; % Di-prodrug at time (h) ([2]; 0 h): 100%; % Di-prodrug at time (h) ([2]; 1 h): 28%; % Di-prodrug at time (h) ([2]; 2 h): 15%; % Di-prodrug at time (h) ([2]; 4 h): 0%; % Di-prodrug at time (h) ([2]; 6 h): 0%; % Di-prodrug at time (h) ([2]; 24 h): 0%
3 | C=C(C)[C@@H]1CCC(C)=C[C@H]1c1c(O)cc(CCCCC)cc1OC(=O)[C@@H](O)CO [ALL00137, CBD (S)-2,3-dihydroxypropanoate] |  |  |  |  |  |  |  |  |  |  |  |  | prodrug and trace amounts of cannabidiol |  |  | did not permeate through the skin or was below detection in the receiver samples | not higher | 89 | 73 | 4 | 30 h skin conc ([1]; CBD from applied prodrug): 0.3 ± 0.0 µmol/g; 30 h skin conc [1, 3]: 0.9 ± 0.3 µmol/g; 30 h skin conc [1, 4]: 1.0 ± 0.5 µmol/g; % Prodrug at time (h) ([2]; 3 h): 60%
4 | C=C(C)C1CCC(C)=CC1c1c(O)cc(CCCCC)cc1OC(=O)COCCOCCOC (stereo not drawn) [ALL00140, CBD 2-[2-(2-methoxyethoxy)ethoxy]acetate] | 24.1 ± 3.3 | 0.9 ± 0.1 | 9.0 ± 2.7 | 34.3 ± 15.5 | 12.7 ± 6.6 | 1.3 ± 0.5 | 12.6 ± 2.5 | 58.1 ± 15.5 | 13.2 ± 6.9 | 2.2 ± 0.5 | 11.2 ± 2.2 | 0.33 | mostly as prodrug in the skin with small amounts of cannabidiol | did not increase the flux | slightly decreased | intact prodrug and cannabidiol | not higher | 100 |  | 0 | 42 h skin conc ([1]; CBD from applied prodrug): 0.5 ± 0.3 µmol/g; % Prodrug at time (h) ([2]; 2 h): 0%; % Prodrug at time (h) ([2]; 20 h): 0%
